This test deals with rabbit serum obtained by immunizing a rabbit with the SARS-CoV strain Frankfurt 1. The test is classed as binding. More on the design: Binding of a rabbit serum to linear peptides / Binding of a rabbit serum to looped peptides / Rabbit serum linear peptides / Rabbit serum looped peptides / Binding of a rabbit serum to linear peptides of protein N of SARS-CoV Urbani (Rabbit serum linear peptides) / Binding of a rabbit serum to looped/cyclic peptides of protein N of SARS-CoV Urbani (Rabbit serum looped peptides): unit not given here.

The values that follow come from US20070128217A1 (priority 2003, published 2007).

Regarding ARCWYLHEGHQTAAF, the “Rabbit serum linear peptides” value is listed as 0.3 and the “Rabbit serum looped peptides” value is reported as 0.6.
Turning to AVIIRGHLRMAGHPL, the “Rabbit serum linear peptides” value stood at 0.3 and the “Rabbit serum looped peptides” value is on record as 0.6.
On to DNASPASTVHATATI, for which the “Binding of a rabbit serum to linear peptides” value (from here on “Binding … to linear peptides”) worked out at 0.7 and the “Binding of a rabbit serum to looped peptides” value (from here on “Binding … to looped peptides”) was determined as 0.3.
For the sequence EELKQLLEQWNLVIG, the “Rabbit serum linear peptides” value came to 0.4 and the “Rabbit serum looped peptides” value came out at 0.4.
EGNSPFHPLADNKFA: the “Rabbit serum linear peptides” value is 0.7 and the “Rabbit serum looped peptides” value is 0.7.
Consider FAGTHITMTTVYHIT, for which the “Binding … to linear peptides” value is recorded as 0.6 and the “Binding … to looped peptides” value is given as 0.4.
Regarding GAVIIRGHLRMAGHP, the “Rabbit serum linear peptides” value amounted to 0.8 and the “Rabbit serum looped peptides” value came out at 0.5.
As to GFQFIGNLLLLFVTI, the “Binding … to linear peptides” value was determined as 0.9 and the “Binding … to looped peptides” value was 0.5.
Take GTITVEELKQLLEQW: the “Recognition of the peptide by the rabbit serum” value (from here on “Recognition of the peptide”) is “recognized”.
Take HLRMAGHPLGRCDIK: the “Rabbit serum linear peptides” value was 0.0 and the “Rabbit serum looped peptides” value turned out to be 0.5.
For IANACIVGLMWLSYF the same measures were 0.1 and 0.0.
For IGAVIIRGHLRMAGH the same measures were 0.3 and 0.8.
For IRGHLRMAGHPLGRC the same measures were 1.2 and 0.4.
Turning to ITVEELKQLLEQWNL, the “Recognition of the peptide” value is given as “recognized”.
KQLLEQWNLVIGFLP: the “Rabbit serum linear peptides” value is listed as 0.0 and the “Rabbit serum looped peptides” value is on record as 0.1.
LHEGHQTAAFRDVLV: the “Rabbit serum linear peptides” value was 0.5 and the “Rabbit serum looped peptides” value is 0.7.
For RCWYLHEGHQTAAFR, in that order: 0.9 and 0.4.
For RGHLRMAGHPLGRCD, in that order: 0.0 and 0.3.
For SPFHPLADNKFALTC, in that order: 0.4 and 0.5.
For the sequence TLGSITAQPVKIDNA, the “Binding … to linear peptides” value came out at 0.8 and the “Binding … to looped peptides” value worked out at 0.4.
Take TVEELKQLLEQWNLV: the “Recognition of the peptide” value was “recognized”.
For the sequence TVHATATIPLQASLP, the “Binding … to linear peptides” value is 0.4 and the “Binding … to looped peptides” value was found to be 0.5.
With TYEGNSPFHPLADNK, the “Rabbit serum linear peptides” value turned out to be 0.7 and the “Rabbit serum looped peptides” value is reported as 0.4.
With VHATATIPLQASLPF, the “Binding … to linear peptides” value was determined as 0.1 and the “Binding … to looped peptides” value is 0.6.
On to VIGAVIIRGHLRMAG, for which the “Rabbit serum linear peptides” value was 1.5 and the “Rabbit serum looped peptides” value worked out at 0.6.
For VIIRGHLRMAGHPLG, the “Rabbit serum linear peptides” value is 0.4 and the “Rabbit serum looped peptides” value turned out to be 0.6.
For VQQELYSPLFLTVAA, in that order: 0.5 and 0.2.
For WYLHEGHQTAAFRDV, in that order: 0.3 and 0.0.
